Results taken from PubChem BioAssay AID2060617 (Molecular Pharmacology Branch, DTP, NCI, 2025).
Several values for one entry are separate records, joined by “and”; a condition that tells them apart may be missing. Equal values may be shown once.

Test system: 485368-065-R4-J2-PDC spheroids with HUVEC/MSC, viability
Experiment: Anticancer human tumor 485368-065-R4-J2-PDC patient-derived pancreatic carcinoma cell line growth inhibition [CLK]
Details: for viability, T/C: stronger effect = lower value
Description: A high-throughput screen of multi-cell type tumor spheroids was designed to identify active combinations of […] and targeted small molecules. Complex spheroids include a stromal component modeled by human endothelial cells (HUVEC) and fibroblasts modeled by human mesenchymal stem cells (MSCs). The concentration ranges selected for each drug and investigational agent were based upon clinically achievable concentrations if the clinical Cmax of the agent was known.
Compounds. The drugs and investigational agents: cirtuvivint (SM08502; NSC835563), CC-671 (NSC850746), vemurafenib (NSC761431), tapotoclax (NSC804041), sotorasib (NSC818433), adagrasib (NSC831453), MRTX-1133 (NSC836407), BAY2416964 (NSC825713), copanlisib (NSC816437), inavolisib (NSC800729), abemaciclib (NSC768073), osimertinib (NSC779217), entinostat (NSC756642), eltanexor (KPT-8602, NSC794443), venetoclax (NSC766270), ceralasertib (NSC777638), bortezomib (NSC756655), olaparib (NSC753686), talazoparib (NSC767125), alisertib (NSC759677), peposertib (NSC802822), gemcitabine (NSC613327), 5-fluorouracil (NSC19893), SN-38 (NSC673596), oxaliplatin (NSC266046), paclitaxel (NSC125973), and doxorubicin (NSC123127), were obtained from the National Cancer Institute (NCI) Developmental Therapeutics Program Chemical Repository. The FDA-approved anticancer drug set is available from the Developmental Therapeutics Program at https://dtp.cancer.gov/organization/dscb/obtaining/available plates.htm. […] The stock solutions were prepared in dimethyl sulfoxide (DMSO, Sigma-Aldrich, St. Louis, MO, cat. D2650), except for the platinum complexes which were prepared in saline (Quality Biological, Gaithersburg, MD, cat. 114-055-101), at 800-fold the tested concentration and stored at -70 degrees C prior to their use. All drugs and investigational agents were tested over a range starting from a high concentration at or near the clinical Cmax and decreasing in half-log increments. If the clinical Cmax for an agent had not been determined, the highest concentration tested was 10 microM.
Cell Culture. All cells were maintained in an incubator at 37 degrees C and 5% CO2 with 95% humidity. The PDC lines were cultured according to standard operating procedures established by the NCI PDMR. Briefly, all PDCs were thawed and cultured in Matrigel-coated flasks prepared with a working solution of 1X Ham's F-12 nutrient mix, without supplementation (Invitrogen, Waltham, MA, cat. 11765054), 100 U/mL penicillin-streptomycin (Invitrogen, cat. 15140122), and 2.5% Matrigel (Corning Inc., Corning, NY, cat. 354248) for the first three passages. The 947758-054-R-J2-PDC line was cultured in 6B/Colon 1A media, which includes advanced DMEM/F-12 (Thermo Fisher Scientific, cat. 12634028), 10 mM HEPES (Thermo Fisher Scientific, cat. 15630080), 1X GlutaMAX supplement (Thermo Fisher Scientific, cat. 35050061), 0.1 mg/mL primocin (InvivoGen, cat. ant-pm-2), 10% defined fetal bovine serum, heat inactivated (HyClone Laboratories Inc., cat. SH30070.03HI), 1.25 mM N-Acetyl-L-cysteine (Sigma-Aldrich, cat. A9165), 10 mM nicotinamide (Sigma-Aldrich, cat. N0636), 1X B-27 supplement (Thermo Fisher Scientific, cat. 17504044), 1X N-2 supplement (Thermo Fisher Scientific, cat. 17502048), and 10 microM Y-27632 dihydrochloride (Tocris Bioscience, cat. 1254). The 876862-298-R-J1-PDC was cultured in 6E media, which includes all 6B/Colon 1A media components plus 50% L-WRN conditioned media (ATCC, cat. CRL-3276), 50 ng/mL recombinant human EGF recombinant protein (hEGF; Thermo Fisher Scientific, cat. PHG0311), 10 ng/mL recombinant human fibroblast growth factor 10 (hGFG-10; PeproTech, cat. 100-26), 1 ng/mL recombinant human fibroblast growth factor 2 (hFGF-2; PeproTech, cat. 100-18B), and 1 µM prostaglandin E2 (PGE2; Tocris, cat. 2296). The 227483-062-R1-J1-PDC line was cultured in Panc media, containing all 6E components except hFGF-2, with the addition of 500 nM SB-431542 (Selleckchem, cat. S1067) and 10 nM gastrin (Tocris, cat. 3006). […]

[1] = curve of first compound, second compound 0.0316 µM
[2] = curve of first compound, second compound 0.1 µM
[3] = curve of first compound, second compound 0.316 µM
[4] = curve of first compound, second compound 1 µM
[5] = curve of first compound, second compound 3.16 µM
[6] = curve of first compound, second compound 10 µM
[7] = second compound 0.0316 µM, first compound 0.0316 µM
[8] = second compound 0.0316 µM, first compound 0.1 µM
[9] = second compound 0.0316 µM, first compound 0.316 µM
[10] = second compound 0.0316 µM, first compound 1 µM
[11] = second compound 0.0316 µM, first compound 3.16 µM
[12] = second compound 0.0316 µM, first compound 10 µM
[13] = second compound 0.1 µM, first compound 0.0316 µM
[14] = second compound 0.1 µM, first compound 0.1 µM
[15] = second compound 0.1 µM, first compound 0.316 µM
[16] = second compound 0.1 µM, first compound 1 µM
[17] = second compound 0.1 µM, first compound 3.16 µM
[18] = second compound 0.1 µM, first compound 10 µM
[19] = second compound 0.316 µM, first compound 0.0316 µM
[20] = second compound 0.316 µM, first compound 0.1 µM
[21] = second compound 0.316 µM, first compound 0.316 µM
[22] = second compound 0.316 µM, first compound 1 µM
[23] = second compound 0.316 µM, first compound 3.16 µM
[24] = second compound 0.316 µM, first compound 10 µM
[25] = second compound 1 µM, first compound 0.0316 µM
[26] = second compound 1 µM, first compound 0.1 µM
[27] = second compound 1 µM, first compound 0.316 µM
[28] = second compound 1 µM, first compound 1 µM
[29] = second compound 1 µM, first compound 3.16 µM
[30] = second compound 1 µM, first compound 10 µM
[31] = second compound 3.16 µM, first compound 0.0316 µM
[32] = second compound 3.16 µM, first compound 0.1 µM
[33] = second compound 3.16 µM, first compound 0.316 µM
[34] = second compound 3.16 µM, first compound 1 µM
[35] = second compound 3.16 µM, first compound 3.16 µM
[36] = second compound 3.16 µM, first compound 10 µM
[37] = second compound 10 µM, first compound 0.0316 µM
[38] = second compound 10 µM, first compound 0.1 µM
[39] = second compound 10 µM, first compound 0.316 µM
[40] = second compound 10 µM, first compound 1 µM
[41] = second compound 10 µM, first compound 3.16 µM
[42] = second compound 10 µM, first compound 10 µM
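Further: spheroids exposed to compounds for seven days.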
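Wherever viability, T/C is given: 100% = DMSO vehicle control wells.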

NC(=O)C(=Cn1cnc(-c2cc(C(F)(F)F)cc(C(F)(F)F)c2)n1)c1cncnc1
viability, T/C (compound 0.00949 µM): 94.3% and 112%
viability, T/C (compound 0.03 µM): 120% and 123%
viability, T/C (compound 0.0949 µM): 176% and 183%
viability, T/C (compound 0.3 µM): 193% and 186%
viability, T/C (compound 0.949 µM): 169% and 182%
viability, T/C (compound 3 µM): 122% and 136%
IC50 (curve of compound): > 3 µM

CC(=O)O[C@H]1C(=O)[C@@]2(C)[C@H]([C@H](OC(=O)c3ccccc3)[C@]3(O)C[C@H](OC(=O)[C@H](O)[C@@H](NC(=O)c4ccccc4)c4ccccc4)C(C)=C1C3(C)C)[C@]1(OC(C)=O)CO[C@@H]1C[C@@H]2O
viability, T/C (compound 0.0316 µM): 58.2% and 59.8%
viability, T/C (compound 0.1 µM): 50.1% and 56.1%
viability, T/C (compound 0.316 µM): 49% and 52.2%
viability, T/C (compound 1 µM): 48.5% and 43.6%
viability, T/C (compound 3.16 µM): 49.9% and 52.5%
viability, T/C (compound 10 µM): 48.8% and 65.5%

CN1CCN(c2cc(C(=O)Nc3cc4cc(-c5cnn(C)c5)ccc4cn3)ccn2)CC1
viability, T/C (compound 0.0316 µM): 95.6% [middle of 12 runs]
viability, T/C (compound 0.316 µM): 83% [middle of 12 runs]
viability, T/C (compound 1 µM): 0.9% [middle of 11 runs]
viability, T/C (compound 3.16 µM): 1.39% [middle of 12 runs]
viability, T/C (compound 10 µM): 1.68% [middle of 11 runs]
IC50 (compound alone, run of 08/14/2023): 504 nM [middle of 12 runs]

C#Cc1c(F)ccc2cc(O)cc(-c3ncc4c(N5CC6CCC(C5)N6)nc(OCC56CCCN5CC(F)C6)nc4c3F)c12 (stereo not drawn) + CNC(=O)c1ccc(Nc2nc(OC3CCCC3)c3c(-c4ccc5nc(C)oc5c4)c[nH]c3n2)c(OC)c1
IC50 [1]: > 10 µM
IC50 [2]: > 10 µM
IC50 [3]: > 10 µM
IC50 [4]: > 10 µM
IC50 [5]: 6.95 µM
IC50 [6]: 5.79 µM
viability, T/C [7]: 103%
viability, T/C [8]: 115%
viability, T/C [9]: 90.3%
viability, T/C [10]: 102%
viability, T/C [11]: 104%
viability, T/C [12]: 108%
viability, T/C [13]: 96.1%
viability, T/C [14]: 99.8%
viability, T/C [15]: 108%
viability, T/C [16]: 98.4%
viability, T/C [17]: 103%
viability, T/C [18]: 108%
viability, T/C [19]: 91.4%
viability, T/C [20]: 86.5%
viability, T/C [21]: 96.7%
viability, T/C [22]: 87%
viability, T/C [23]: 75.8%
viability, T/C [24]: 70.3%
viability, T/C [25]: 82.8%
viability, T/C [26]: 79.4%
viability, T/C [27]: 80.3%
viability, T/C [28]: 71.5%
viability, T/C [29]: 68.8%
viability, T/C [30]: 52.3%
viability, T/C [31]: 77.5%
viability, T/C [32]: 72.5%
viability, T/C [33]: 77.1%
viability, T/C [34]: 73.2%
viability, T/C [35]: 59.4%
viability, T/C [36]: 45%
viability, T/C [37]: 74.7%
viability, T/C [38]: 73.1%
viability, T/C [39]: 68.5%
viability, T/C [40]: 67.7%
viability, T/C [41]: 57%
viability, T/C [42]: 43.1%

Nc1ccccc1NC(=O)c1ccc(CNC(=O)OCc2cccnc2)cc1 + CN1CCN(c2cc(C(=O)Nc3cc4cc(-c5cnn(C)c5)ccc4cn3)ccn2)CC1
IC50 [1]: 6.96 µM
IC50 [2]: 7.56 µM
IC50 [3]: 2.52 µM
IC50 [4]: < 0.0316 µM
IC50 [5]: < 0.0316 µM
IC50 [6]: < 0.0316 µM
viability, T/C [7]: 88.7%
viability, T/C [8]: 105%
viability, T/C [9]: 91%
viability, T/C [10]: 97.7%
viability, T/C [11]: 91.6%
viability, T/C [12]: 30.7%
viability, T/C [13]: 109%
viability, T/C [14]: 118%
viability, T/C [15]: 99.1%
viability, T/C [16]: 102%
viability, T/C [17]: 93.1%
viability, T/C [18]: 36.2%
viability, T/C [19]: 81.1%
viability, T/C [20]: 82.1%
viability, T/C [21]: 66.8%
viability, T/C [22]: 68.6%
viability, T/C [23]: 45.5%
viability, T/C [24]: 15.6%
viability, T/C [25]: 1.64%
viability, T/C [26]: 1.49%
viability, T/C [27]: 1.21%
viability, T/C [28]: 0.42%
viability, T/C [29]: 0.41%
viability, T/C [30]: 1.05%
viability, T/C [31]: 1.12%
viability, T/C [32]: 1.85%
viability, T/C [33]: 3.03%
viability, T/C [34]: 1.14%
viability, T/C [35]: 1.31%
viability, T/C [36]: 1.7%
viability, T/C [37]: 1.94%
viability, T/C [38]: 2.06%
viability, T/C [39]: 1.81%
viability, T/C [40]: 2.05%
viability, T/C [41]: 1.05%
viability, T/C [42]: 1.74%
